# According to PubChem BioAssay (NCI):
#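 Five concentrations, 48 hours, 96-well plates. GI50 is the concentration that inhibits growth by half. TGI: total growth inhibition.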
# Experiments:
# Assay in all cases: growth of human tumour cells (NCI), 48 h
# [1] = tested on: EKVX NSCLC
# [2] = tested on: NCI-H460 lung
# [3] = tested on: NCI-H23 lung
# [4] = tested on: A549 NSCLC
# [5] = tested on: SF-268 CNS
# [6] = tested on: SK-OV-3 ovarian
# [7] = tested on: MALME-3M melanoma
# [8] = tested on: KM12 colon
# [9] = tested on: COLO 205 colon
# [10] = tested on: HCC-2998 colon
# [11] = tested on: K-562 leukemia
# [12] = tested on: IGROV1 ovarian
# [13] = tested on: RPMI-8226 leukemia
# [14] = tested on: SF-539 CNS
# [15] = tested on: UO-31 renal
# [16] = tested on: RXF 393 renal
# [17] = tested on: SNB-75 CNS
# [18] = tested on: UACC-257 melanoma
# [19] = tested on: LOX IMVI melanoma
# [20] = tested on: SK-MEL-28 melanoma
# [21] = tested on: OVCAR-5 ovarian
# [22] = tested on: HOP-62 NSCLC
# [23] = tested on: A498 renal
# [24] = tested on: MDA-MB-435
# [25] = tested on: CAKI-1 renal
# [26] = tested on: OVCAR-8 ovarian
# [27] = tested on: NCI-H522 lung
# [28] = tested on: SW-620 colon
# [29] = tested on: HS 578T breast
# [30] = tested on: HL-60(TB) leukemia
# [31] = tested on: T-47D breast
# [32] = tested on: CCRF-CEM leukemia
# [33] = tested on: NCI-H226 lung
# [34] = tested on: ACHN renal
# [35] = tested on: MOLT-4 leukemia
# [36] = tested on: UACC-62 melanoma
# [37] = tested on: SR leukemia
# [38] = tested on: NCI/ADR-RES ovarian
# [39] = tested on: SK-MEL-5 melanoma
# [40] = tested on: SF-295 CNS
# [41] = tested on: HOP-92 NSCLC
# [42] = tested on: DU-145 prostate
# [43] = tested on: M14 melanoma
# [44] = tested on: MCF7 breast
# [45] = tested on: BT-549 breast
# [46] = tested on: OVCAR-4 ovarian
# [47] = tested on: OVCAR-3 ovarian
# [48] = tested on: HT29 colon
# [49] = tested on: MDA-MB-468 breast
# [50] = tested on: PC-3 prostate
# [51] = tested on: MDA-MB-231 breast
# [52] = tested on: TK-10 renal
# [53] = tested on: U251 CNS
# [54] = tested on: SN12C renal
# [55] = tested on: 786-0 renal
# [56] = tested on: HCT-15 colon
# [57] = tested on: SK-MEL-2 melanoma
# [58] = tested on: SNB-19 CNS
structure (smiles),measurement,setting,value
CCNCCCn1c2c(c3cc(OC)c(OC)cc3c1=O)C(=O)c1cc3c(nc1-2)OCO3,GI50,[1],5.26 µM
same,TGI,[1],20 µM
same,GI50,[2],0.239 µM
same,TGI,[2],1.39 µM
same,GI50,[3],0.324 µM
same,TGI,[3],3.76 µM
same,GI50,[4],1.22 µM
same,TGI,[4],18.4 µM
same,GI50,[5],0.85 µM
same,TGI,[5],16.8 µM
same,GI50,[6],1.14 µM
same,TGI,[6],11.8 µM
same,GI50,[7],1.35 µM
same,TGI,[7],2.76 µM
same,GI50,[8],10.4 µM
same,TGI,[8],23.8 µM
same,GI50,[9],3.07 µM
same,TGI,[9],19.6 µM
same,GI50,[10],4.07 µM
same,TGI,[10],18.9 µM
same,GI50,[11],0.483 µM
same,TGI,[11],2.75 µM
same,GI50,[12],12.1 µM
same,TGI,[12],25.7 µM
same,GI50,[13],0.641 µM
same,TGI,[13],2.97 µM
same,GI50,[14],0.675 µM
same,TGI,[14],4.1 µM
same,GI50,[15],3.09 µM
same,TGI,[15],16.3 µM
same,GI50,[16],1.35 µM
same,TGI,[16],5.66 µM
same,GI50,[17],0.495 µM
same,TGI,[17],9.41 µM
same,GI50,[18],13.4 µM
same,TGI,[18],27.7 µM
same,GI50,[19],0.487 µM
same,TGI,[19],1.9 µM
same,GI50,[20],2.56 µM
same,TGI,[20],8.53 µM
same,GI50,[21],3.69 µM
same,TGI,[21],16.5 µM
same,GI50,[22],0.205 µM
same,TGI,[22],10.2 µM
same,GI50,[23],9.07 µM
same,TGI,[23],23 µM
same,GI50,[24],1.38 µM
same,TGI,[24],2.89 µM
same,GI50,[25],0.946 µM
same,TGI,[25],16.6 µM
same,GI50,[26],1.82 µM
same,TGI,[26],12 µM
same,GI50,[27],0.442 µM
same,TGI,[27],23 µM
same,GI50,[28],0.631 µM
same,TGI,[28],20.1 µM
same,GI50,[29],10.4 µM
same,TGI,[29],29.8 µM
same,GI50,[30],1.63 µM
same,TGI,[30],7.5 µM
same,GI50,[31],1.06 µM
same,TGI,[31],13.9 µM
same,GI50,[32],0.0351 µM
same,TGI,[32],1.23 µM
same,GI50,[33],1.27 µM
same,TGI,[33],3.2 µM
same,GI50,[34],0.755 µM
same,TGI,[34],7.05 µM
same,GI50,[35],0.048 µM
same,TGI,[35],2.13 µM
same,GI50,[36],1.81 µM
same,TGI,[36],15.4 µM
same,GI50,[37],0.307 µM
same,TGI,[37],2.39 µM
same,GI50,[38],1.56 µM
same,TGI,[38],4.14 µM
same,GI50,[39],0.921 µM
same,TGI,[39],2.14 µM
same,GI50,[40],0.23 µM
same,TGI,[40],12.7 µM
same,GI50,[41],7.73 µM
same,TGI,[41],23.1 µM
same,GI50,[42],0.548 µM
same,TGI,[42],12.5 µM
same,GI50,[43],1.97 µM
same,TGI,[43],12.3 µM
same,GI50,[44],0.0754 µM
same,TGI,[44],10.3 µM
same,GI50,[45],6.82 µM
same,TGI,[45],25.1 µM
same,GI50,[46],14.2 µM
same,TGI,[46],31.9 µM
same,GI50,[47],11.9 µM
same,TGI,[47],24.7 µM
same,GI50,[48],0.706 µM
same,TGI,[48],16.1 µM
same,GI50,[49],0.431 µM
same,TGI,[49],2.51 µM
same,GI50,[50],1.28 µM
same,TGI,[50],18.9 µM
same,GI50,[51],1.91 µM
same,TGI,[51],6.14 µM
same,GI50,[52],17.6 µM
same,TGI,[52],33.3 µM
same,GI50,[53],0.348 µM
same,TGI,[53],14.7 µM
same,GI50,[54],4.61 µM
same,TGI,[54],17.4 µM
same,GI50,[55],1.39 µM
same,TGI,[55],2.84 µM
same,GI50,[56],1.14 µM
same,TGI,[56],2.54 µM
same,GI50,[57],> 100 µM
same,TGI,[57],> 100 µM
same,GI50,[58],1.69 µM
same,TGI,[58],17.5 µM
